Key:
[1] = Stability test -2: residual rate in cream of pH 7 or 9 stored at 50°C; type: physicochemical; details: cream with 4.0 W/W% derivative
Experimental: (§1) For each of the samples of Synthesis Examples 9 to 32, (a) and (b) shown in Table 12 were each heated and mixed. After cooling, (c) shown in Table 12 was added to prepare a cream with a pH of 7 or 9. The sample was stored at 50°C for 4 weeks, and the residual rate was determined in the same manner as in Test Example 1 and evaluated according to the criteria described below. The odor and coloration were also evaluated according to the same method and criteria as in Test Example 1. The results regarding the residual rate are shown in Tables 13 and 14, and the results regarding the odor and coloration are shown in Tables 15 and 16.
• ⊚: 95% or more • ○: 85% or more, less than 95% • ×: Less than 85% [Table 12]

[2] = Stability test -2: odor and coloration of cream stored at 50°C; type: physicochemical; details: Test Example 2, cream stored at 50°C, total score of 10 panelists
Experimental: For each of the samples of Synthesis Examples 1 to 6, 1% aqueous solutions were adjusted to pH 3, 5, 7, 8, and 9 with a dilute potassium hydroxide aqueous solution, and then placed in 50 mL screw tubes and • 2: Color changes compared to immediately after preparation. • 1: Strongly colored compared to immediately after preparation. Based on the results of the above evaluation, the following classification was made: • ○: Total score of 10 panelists is 25 or more • △: Total score of 10 panelists is 16-24 • ×: The total score of 10 panelists is 15 or less [Table 10]
as §1

[3] = system: Normal human dermal fibroblasts (NHDF); assay: Hyaluronic acid production promoting effect (ELISA of supernatant); type: cell-based; details: sample at 10 mM or less in serum-free D-MEM, cultured 48 hours, % of control group (100%), N=3
Experimental: Normal human dermal fibroblasts (NHDF) were prepared in D-MEM containing 5% (v/v) fetal bovine serum to a cell density of 2.5 × 10^4 cells/well, and then pre-incubated on a 96-well plate for 24 hours. After removing the medium, samples prepared in serum-free D-MEM were added to each well and cultured for 48 hours. After the culture was completed, the amount of hyaluronic acid in the supernatant was quantified by ELISA. Measurements were performed in triplicate (N=3).
The amount of hyaluronic acid produced when the sample was measured at a concentration of 10 mM or less was compared with that of the control group, and the results (% values when the control group is set to 100%) are shown in Tables 18 to 20 based on the following criteria. • <100%: ± • 100-120%: + • 120%<: ++ [Table 18]

Residual Rate After 2 weeks ([1]; pH7, stored at 50°C)	Residual Rate After 4 weeks ([1]; pH7, stored at 50°C)	Residual Rate After 2 weeks ([1]; pH9, stored at 50°C)	Residual Rate After 4 weeks ([1]; pH9, stored at 50°C)	Odor After 4 weeks [2]	Compound	Coloration After 2 weeks [2]	Odor After 2 weeks [2]	Coloration After 4 weeks [2]	Hyaluronic acid production-promoting effect [3]
⊚ (95% or more)	⊚ (95% or more)	⊚ (95% or more)	○ (85% or more, less than 95%)	Δ	CCCCCCCC(=O)OCC(O)C1OC(=O)C2=C1OCCCCO2 (centres unmarked) [synthesis example 11, 6-O-octanoyl-2,3-O-(1,4-butanediyl) ascorbic acid]	○ (Total score of 10 panelists is 25 or more)	○ (Total score of 10 panelists is 25 or more)	○ (Total score of 10 panelists is 25 or more)	++ (120%<)
–	–	–	–	–	CC1(C)COC2=C(O1)C(C(O)CO)OC2=O (centres unmarked) [synthesis example 7, 2,3-O-(2,2-dimethyl-1,2-ethanediyl) ascorbic acid]	–	–	–	+ (100-120%)
⊚ (95% or more)	⊚ (95% or more)	⊚ (95% or more)	⊚ (95% or more)	Δ	CCCCCCCCCCCC(=O)OCC(O)C1OC(=O)C2=C1OCCCO2 (centres unmarked) [synthesis example 24, 6-O-lauroyl-2,3-O-(1,3-propanediyl) ascorbic acid]	○ (Total score of 10 panelists is 25 or more)	○ (Total score of 10 panelists is 25 or more)	○ (Total score of 10 panelists is 25 or more)	++ (120%<)
⊚ (95% or more)	⊚ (95% or more)	⊚ (95% or more)	⊚ (95% or more)	Δ	CCCCCCCC(=O)OCC(OC(=O)CCC)C1OC(=O)C2=C1OCCCCO2 (centres unmarked) [synthetic example 19, 5-O-butanoyl-6-O-octanoyl-2,3-O-(1,4-butanediyl) ascorbic acid]	○ (Total score of 10 panelists is 25 or more)	○ (Total score of 10 panelists is 25 or more)	○ (Total score of 10 panelists is 25 or more)	–
–	–	–	–	–	CC1(C)OCC(C2OC(=O)C3=C2OCCCCO3)O1 (centres unmarked) [synthesis example 35, 5,6-O-isopropylidene-2,3-O-(1,4-butanediyl) ascorbic acid]	–	–	–	++ (120%<)
⊚ (95% or more)	⊚ (95% or more)	⊚ (95% or more)	⊚ (95% or more)	Δ	CCCC(=O)OCC(O)C1OC(=O)C2=C1OCCCO2 (centres unmarked) [synthesis example 20, 6-O-butanoyl-2,3-O-(1,3-propanediyl) ascorbic acid]	○ (Total score of 10 panelists is 25 or more)	○ (Total score of 10 panelists is 25 or more)	○ (Total score of 10 panelists is 25 or more)	++ (120%<)
⊚ (95% or more)	⊚ (95% or more)	⊚ (95% or more)	⊚ (95% or more)	Δ	CC(C)CCCCCCCCCCCCCCC(=O)OCC(OC(=O)CCCCCCCCCCCCCCC(C)C)C1OC(=O)C2=C1OCCO2 (centres unmarked) [Synthesis Example 32, 5,6-O-diisostearoyl-2,3-O-(1,2-ethanediyl) ascorbic acid]	○ (Total score of 10 panelists is 25 or more)	○ (Total score of 10 panelists is 25 or more)	○ (Total score of 10 panelists is 25 or more)	+ (100-120%)
⊚ (95% or more)	⊚ (95% or more)	⊚ (95% or more)	⊚ (95% or more)	Δ	CCCCCCCC(=O)OCC(O)C1OC(=O)C2=C1OCCCO2 (centres unmarked) [synthesis example 22, 6-O-octanoyl-2,3-O-(1,3-propanediyl) ascorbic acid]	○ (Total score of 10 panelists is 25 or more)	○ (Total score of 10 panelists is 25 or more)	○ (Total score of 10 panelists is 25 or more)	++ (120%<)
–	–	–	–	–	O=C1OC(C2COC(c3ccccc3)O2)C2=C1OCCCCO2 (centres unmarked) [synthesis example 37, 5,6-O-(phenylmethylene)-2,3-O-(1,4-butanediyl) ascorbic acid]	–	–	–	+ (100-120%)
○ (85% or more, less than 95%)	× (Less than 85%)	○ (85% or more, less than 95%)	× (Less than 85%)	Δ	CCCCCCCCC(CCCCCC)C(=O)OC[C@H](OC(=O)C(CCCCCC)CCCCCCCC)[C@H]1OC(=O)C(OC(=O)C(CCCCCC)CCCCCCCC)=C1OC(=O)C(CCCCCC)CCCCCCCC (some centres unmarked) [Ascorbyl tetrahexyldecanoate, reference compound]	○ (Total score of 10 panelists is 25 or more)	○ (Total score of 10 panelists is 25 or more)	Δ	–
–	–	–	–	–	CC1(C)COC2=C(O1)C(=O)OC2C(O)CO (centres unmarked) [synthetic example 8, 2,3-O-(1,1-dimethyl-1,2-ethanediyl) ascorbic acid]	–	–	–	+ (100-120%)
⊚ (95% or more)	⊚ (95% or more)	⊚ (95% or more)	⊚ (95% or more)	Δ	CCCCCCCCCCCCCCCC(=O)OCC(OC(=O)CCC)C1OC(=O)C2=C1OCCCO2 (centres unmarked) [Synthesis Example 30, 5-O-butanoyl-6-O-palmitoyl-2,3-O-(1,3-propanediyl) ascorbic acid]	○ (Total score of 10 panelists is 25 or more)	○ (Total score of 10 panelists is 25 or more)	○ (Total score of 10 panelists is 25 or more)	–
–	–	–	–	–	O=C1OC(C2COC(c3ccccc3)O2)C2=C1OCCCO2 (centres unmarked) [synthesis example 38, 5,6-O-(phenylmethylene)-2,3-O-(1,3-propanediyl) ascorbic acid]	–	–	–	++ (120%<)
–	–	–	–	–	CCCCCCCCCCCCCCCC(=O)OC[C@H](O)[C@H]1OC(=O)C(OP(=O)(O)O)=C1O [Ascorbyl phosphate 3Na palmitate, reference compound]	–	–	–	± (<100%)
–	–	–	–	–	CC1(C)OCC(C2OC(=O)C3=C2OCCCO3)O1 (centres unmarked) [synthesis example 36, 5,6-O-isopropylidene-2,3-O-(1,3-propanediyl) ascorbic acid]	–	–	–	++ (120%<)
–	–	–	–	–	O=C1OC(C(O)COCc2ccccc2)C2=C1OCCCCO2 (centres unmarked) [synthetic example 39, 6-O-benzyl-2,3-O-(1,4-butanediyl) ascorbic acid]	–	–	–	+ (100-120%)

— patent EP4818172A1, “ASCORBIC ACID DERIVATIVES AND COSMETIC CONTAINING SAME” (Seiwa Kasei Co., Ltd., priority 2023, dated 2025)
